How the values were obtained:
Type in all cases: cell-based, human
CD45RA T cells = assay: Annexin V/propidium iodide FACS apoptosis of stimulated CD45RA T cells; conditions: rIL-2, anti-CD3 plus anti-CD28; after 5 days
Text: Isolation of primary CD4^+ T lymphocytes and lamina propria cells: Human peripheral blood mononuclear cells (PBMCs) from healthy volunteers (25-42 years of age) and patients with Crohn's disease (31-65 years of age) were isolated using Ficoll-Hypaque gradients. PBMCs were further purified using CD4 monoclonal antibodies attached to immunomagnetic beads according to the manufacturer's protocol, followed by treatment with Detachabead (Dynal; Oslo, Norway). In some cases, CD4^+ T cells were further separated by negative selection techniques using CD45RO or CD45RA monoclonal antibodies (PharMingen; Heidelberg, Germany) and immunomagnetic beads (Dynal). […]
For FACS analysis, apoptotic cells were detected by staining with annexin V and propidium iodide using the Annexin V FITC Apoptosis Detection Kit I (PharMingen) (Atreya et al., Nat. Med. 6:583-588 (2000)). […] To verify the results obtained with the annexin V/propidium iodide staining, analysis of T cells displaying DNA fragmentation was also determined by the Nicoletti technique, as described in (Nicoletti et al., J. Immunol. Methods 139:271-279 (1991)). […] Finally, cells were analyzed on a FACScan flow cytometer. […]

bcl-xL = bcl-xL protein expression (Western blot, intracellular FACS); conditions: activated T cells
Experimental: (§1) FACS analysis: Analysis of peripheral blood T cells and lamina propria T lymphocytes by FACS (FACSscan; Becton Dickinson; Berlin, Germany) was performed using FITC-labeled murine antibodies to human CD4 (PharMingen), anti-mouse IgG1 isotype control antibodies (PharMingen), antibodies to bcl-xL and p mitogen-activated protein kinase kinase (pMEK) (Santa Cruz Biotech; Santa Cruz, Calif., USA), and goat anti-mouse Fab-FITC (DAKO). For intracellular staining analysis, T cells were fixed in PBS/4% paraformaldehyde (Merck; Munich, Germany) for 10 minutes at 4° C., washed twice in PBS, permeabilized in PBS/0.1% Triton X-100 (Sigma-Aldrich; Steinheim, Germany), and treated with mouse anti-human bcl-xL or MEK antibodies (2 μg per 5×10^5 cells) for 30 minutes on ice. T cells were washed twice in PBS/0.1% Triton X-100 before incubation with goat anti-mouse Fab-FITC (2 μl per 10^5 cells). Finally, T cells were washed twice in PBS before FACS analysis.
The cells were then washed in PBS, resuspended in 1 ml of T40E10N150 buffer (40 mM Tris-HCl [pH 7.9], 10 mM EDTA [pH 8.0], 150 mM NaCl), put on ice for 5 minutes, and centrifuged for 4 minutes at 4° C. at 1,000 rpm. […] The protein concentrations in supernatants were determined with the Bio-Rad Protein Assay (Bio-Rad; Munich, Germany). […]

MEK = MEK phosphorylation and expression (Western blot, FACS); conditions: 3 days
Experimental: as §1
The cells were then washed in PBS, resuspended in 1 ml of T40E10N150 buffer (40 mM Tris-HCl [pH 7.9], 10 mM EDTA [pH 8.0], 150 mM NaCl), put on ice for 5 minutes, and centrifuged for 4 minutes at 4° C. at 1,000 rpm. The cell pellet was then resuspended on ice in 70 μl of buffer (10 mM HEPES [pH 8.0], 400 mM NaCl, 0.1 mM EDTA, 5% glycerol, 1 mM DTT, 1 mM PMSF) and centrifuged at 15,000 rpm for 30 minutes at 4° C. The protein concentrations in supernatants were determined with the Bio-Rad Protein Assay (Bio-Rad; Munich, Germany).
Western blots: Equal amounts of extract (30 μg) were added to 8 μl of electrophoresis sample buffer (Firma Roth; Karlsruhe, Germany). After boiling, the extracts were loaded on 15% SDS-PAGE gels and electrophoretically separated. Proteins were transferred to nitrocellulose membranes, and detection was performed with the ECL Western blotting analysis system (Amersham). […]

| SMILES | induction of annexin V-positive, propidium iodide-negative naive CD45RA T cells (CD45RA T cells) | bcl-xL protein expression (bcl-xL) | MEK phosphorylation (MEK) | expression levels of MEK (MEK) |
| --- | --- | --- | --- | --- |
| Sc1ncnc2nc[nH]c12 [6-MP, 6-mercaptopurine] | significant induction | strongly suppressed | suppresses |  |
| Cn1cnc([N+](=O)[O-])c1Sc1ncnc2nc[nH]c12 [azathioprine, Azathioprine] | significant induction | strongly suppressed | suppressed | nearly unchanged |
